# Results reported in paper PMC2843910 (Biochemical pharmacology, 2008).
# Target: T1, ABCG2 (Homo sapiens, UniProt Q9UNQ0)
# T1 sequence (Q9UNQ0 1-655): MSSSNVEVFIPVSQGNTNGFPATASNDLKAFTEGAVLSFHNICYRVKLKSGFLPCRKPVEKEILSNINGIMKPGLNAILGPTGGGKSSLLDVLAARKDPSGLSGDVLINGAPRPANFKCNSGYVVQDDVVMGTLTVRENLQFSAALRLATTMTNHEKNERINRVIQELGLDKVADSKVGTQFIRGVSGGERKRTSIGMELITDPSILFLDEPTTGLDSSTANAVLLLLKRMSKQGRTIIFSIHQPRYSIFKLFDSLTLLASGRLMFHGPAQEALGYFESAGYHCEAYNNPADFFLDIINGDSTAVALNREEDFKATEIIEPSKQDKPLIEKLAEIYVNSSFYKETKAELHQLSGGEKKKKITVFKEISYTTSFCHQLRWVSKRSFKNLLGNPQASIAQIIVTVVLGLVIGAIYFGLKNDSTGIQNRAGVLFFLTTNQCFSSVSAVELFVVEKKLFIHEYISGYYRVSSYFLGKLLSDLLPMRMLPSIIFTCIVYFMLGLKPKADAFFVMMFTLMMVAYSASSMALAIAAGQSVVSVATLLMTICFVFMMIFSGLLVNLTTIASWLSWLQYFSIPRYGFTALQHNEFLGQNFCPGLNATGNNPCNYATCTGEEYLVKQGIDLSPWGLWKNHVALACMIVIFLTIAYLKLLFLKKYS
# Type: cell-based
compound,measurement,value
CN(Cc1cnc2nc(N)nc(N)c2n1)c1ccc(C(=O)N[C@@H](CCC(=O)O)C(=O)O)cc1 [[^3H]-methotrexate],ATP-dependent uptake into membrane vesicles (rapid filtration),inhibited the rates of both methotrexate and E217βG uptake in the membrane vesicles of ABCG2-482-R5
